# Values quoted from earlier work as cited in US12318376B2, “Compositions of a polyorthoester and an aprotic solvent” (Heron Therapeutics, Inc., priority 2013, dated 2025).
# Settings: printed in brackets under the miscibility class
row,Compound,Water Miscibility (amount in brackets)
1,CCOC(C)=O [ethyl acetate],(8.3 g/100 ml)

# Same assay, conditions: solvent in water, room temperature (20-25° C.)
row,Compound,Water Miscibility
1,O=C(OCc1ccccc1)c1ccccc1 [benzyl benzoate],poorly miscible
2,C[S+](C)[O-] [dimethyl sulfoxide],water miscible
3,CCOC(=O)C(C)O (stereo not drawn) [ethyl lactate],water miscible
4,CCCCCCCC/C=C\CCCCCCCC(=O)OCC [ethyl oleate],poorly miscible
5,CCCCCCCCCCCCCC(=O)OC(C)C [isopropyl myristate],poorly miscible
6,COC(=O)C(C)O (stereo not drawn) [methyl lactate],water miscible
7,C1CCOC1 [tetrahydrofuran],water miscible

# Results, then the molecule that gave them:
row,Water Miscibility,Compound
1,water miscible,"CC1COC(=O)O1 (stereo not drawn) [4-methyl-1,3-diololan-2-one]"
2,poorly miscible,O=C1CCCN1C1CCCCC1 [N-cyclohexyl-2-pyrrolidone]
3,water miscible,"CN1CCCC1=O [N-methyl-2-pyrrolidone (NMP), N-methyl-2-pyrrolidone]"
4,water miscible,O=C1CCCCCO1 [ester-caprolactone]
5,partially miscible,CCOC(C)=O [ethyl acetate]
6,water miscible,COC(C)=O [methyl acetate]
7,water miscible,CCN1CCCC1=O [n-ethyl-2-pyrrolidone]
